Results taken from ChEMBL document CHEMBL1139560, “Synthesis of linked berberine dimers and their remarkably enhanced DNA-binding affinities” (Bioorg Med Chem Lett, 2005).

What was measured:
Format in all cases: nucleic-acid assay
Nucleic Acid [1] = test: In vitro association constant for binding at d(AAGAATTCTT)2 done in 50 mM Tris-HCL in pH 6.35 at room temperature
Nucleic Acid [2] = test: In vitro association constant for binding at d(TA AGAATTCTTA)2 done in 50 mM Tris-HCL in pH 6.35 at room temperature
Nucleic Acid [3] = test: In vitro relative affinity for binding to d(AAGAATTCTT)2
Nucleic Acid [4] = test: In vitro relative affinity for binding to d(TA AGAATTCTTA)2

Compound | Ka (Nucleic Acid [1]) | Ka (Nucleic Acid [2]) | RA (Nucleic Acid [3]) | RA (Nucleic Acid [4])
COc1ccc2cc3[n+](cc2c1OCCCOc1c(OC)ccc2cc4[n+](cc12)CCc1cc2c(cc1-4)OCO2)CCc1cc2c(cc1-3)OCO2 | 246000 | 2.76e+06 | 19.8 | 94.2
COc1ccc2cc3[n+](cc2c1OCCCCCCOc1c(OC)ccc2cc4[n+](cc12)CCc1cc2c(cc1-4)OCO2)CCc1cc2c(cc1-3)OCO2 | 34200 | 248000 | 2.8 | 8.5
COc1ccc2cc3[n+](cc2c1OCCCCCOc1c(OC)ccc2cc4[n+](cc12)CCc1cc2c(cc1-4)OCO2)CCc1cc2c(cc1-3)OCO2 | 57700 | 321000 | 4.7 | 11
COc1ccc2cc3[n+](cc2c1OC)CCc1cc2c(cc1-3)OCO2 | 12400 | 29300 | 1 | 1
COc1ccc2cc3[n+](cc2c1OCCCCOc1c(OC)ccc2cc4[n+](cc12)CCc1cc2c(cc1-4)OCO2)CCc1cc2c(cc1-3)OCO2 | 87800 | 349000 | 7.1 | 11.9
